According to BindingDB's records for doi:10.1016/0006-2952(86)90769-0 (Wyeth Laboratories, 1986):
pKi: −log10 of the molar value.

Assays:
[1] = target: T1, Muscarinic acetylcholine receptor M2 (Rattus norvegicus, UniProt P10980)
T1 sequence (P10980 whole entry): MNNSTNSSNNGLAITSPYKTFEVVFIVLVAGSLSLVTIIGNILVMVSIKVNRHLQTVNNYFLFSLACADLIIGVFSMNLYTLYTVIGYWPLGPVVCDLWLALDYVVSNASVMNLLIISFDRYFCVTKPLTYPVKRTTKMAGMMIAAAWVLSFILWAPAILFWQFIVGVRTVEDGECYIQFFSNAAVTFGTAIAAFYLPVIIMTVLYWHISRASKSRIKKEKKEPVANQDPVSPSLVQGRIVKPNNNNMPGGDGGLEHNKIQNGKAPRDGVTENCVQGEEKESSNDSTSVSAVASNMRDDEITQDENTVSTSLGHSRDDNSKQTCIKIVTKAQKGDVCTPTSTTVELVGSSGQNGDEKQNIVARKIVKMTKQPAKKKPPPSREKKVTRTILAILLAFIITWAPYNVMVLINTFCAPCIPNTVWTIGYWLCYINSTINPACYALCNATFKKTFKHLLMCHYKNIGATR

[2] = target: T2, Alpha-2C adrenergic receptor (Rattus norvegicus, UniProt P22086)
T2 sequence (P22086 whole entry): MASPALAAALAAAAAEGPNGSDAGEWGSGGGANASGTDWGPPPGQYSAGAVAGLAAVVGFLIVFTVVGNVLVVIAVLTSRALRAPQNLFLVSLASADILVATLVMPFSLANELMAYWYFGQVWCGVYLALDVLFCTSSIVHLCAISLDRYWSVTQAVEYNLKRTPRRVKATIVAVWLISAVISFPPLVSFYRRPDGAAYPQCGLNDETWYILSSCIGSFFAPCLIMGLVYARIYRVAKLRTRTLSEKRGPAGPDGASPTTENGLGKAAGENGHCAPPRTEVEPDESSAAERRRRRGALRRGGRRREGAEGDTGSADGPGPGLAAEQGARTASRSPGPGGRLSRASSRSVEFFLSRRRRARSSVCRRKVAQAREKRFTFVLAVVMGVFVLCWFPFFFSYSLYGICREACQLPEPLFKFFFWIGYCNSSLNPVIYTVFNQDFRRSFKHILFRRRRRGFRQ

Histamine H1 receptor = Histamine H1 receptor (Rattus norvegicus, UniProt P31390)
Sequence of Histamine H1 receptor (P31390 whole entry): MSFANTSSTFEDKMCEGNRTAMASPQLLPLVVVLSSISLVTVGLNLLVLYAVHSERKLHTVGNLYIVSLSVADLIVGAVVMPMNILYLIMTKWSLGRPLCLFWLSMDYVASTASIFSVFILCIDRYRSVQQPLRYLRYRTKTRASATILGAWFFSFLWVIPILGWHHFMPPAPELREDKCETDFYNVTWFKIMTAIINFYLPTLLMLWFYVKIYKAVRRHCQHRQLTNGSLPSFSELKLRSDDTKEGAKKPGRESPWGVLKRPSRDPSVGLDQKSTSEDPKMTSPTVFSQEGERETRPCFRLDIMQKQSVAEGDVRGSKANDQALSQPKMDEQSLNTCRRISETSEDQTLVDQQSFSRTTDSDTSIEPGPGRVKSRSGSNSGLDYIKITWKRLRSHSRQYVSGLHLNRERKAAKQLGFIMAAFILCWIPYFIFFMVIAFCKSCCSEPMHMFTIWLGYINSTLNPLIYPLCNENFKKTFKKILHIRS

| Compound | pKi [1] | pKi [2] | pKi (Histamine H1 receptor) |
| --- | --- | --- | --- |
| CNCCCN1c2ccccc2CCc2ccccc21 [Desmethylimipramine] | 7.30 | < 5.00 | – |
| COc1ccc(C(CN(C)C)C2(O)CCCCC2)cc1 (stereo not given) [NSC_62923] | < 5.00 | < 5.00 | < 5.00 |
